Test results: ChEMBL document CHEMBL5500353, “Discovery of novel amide derivatives as potent quorum sensing inhibitors of Pseudomonas aeruginosa” (Eur J Med Chem, 2024)
Values belong to the compound of their own block, whether it stands above or below them. Calls of active or inactive are those of the source. The calls are words filed in the database; no cut-off is given here.

Key:
[1] = Inhibition of quorum sensing system in Pseudomonas aeruginosa PAO1-rhlA-gfp assessed as inhibition of rhlA expression at 50 ug/ml incubated for 8 hrs under shaking condition by microplate reader based analysis relative to control; settings: dose 50.0 µg/ml
[2] = Inhibition of quorum sensing system in Pseudomonas aeruginosa PAO1-pqsA-gfp assessed as inhibition of pqsA expression at 50 ug/ml incubated for 8 hrs under shaking condition by microplate reader based analysis relative to control; settings: dose 50.0 µg/ml
[3] = Inhibition of quorum sensing system in Pseudomonas aeruginosa PAO1-lasB-gfp assessed as inhibition of lasB expression at 50 ug/ml incubated for 8 hrs under shaking condition by microplate reader based analysis relative to control; settings: dose 50.0 µg/ml
Pseudomonas aeruginosa [4] = assay: Downregulation of pqsR mRNA expression in Pseudomonas aeruginosa PAO1 at 160 ug/ml incubated for 6 hrs by RT-qPCR analysis; assay type: functional; settings: dose 160.0 µg/ml
Pseudomonas aeruginosa [5] = assay: Antibacterial activity against Pseudomonas aeruginosa PAO1 at 80 to 160 ug/ml incubated for 48 hrs by absorbance based analysis; assay type: functional, organism-based; settings: dose 80-160 µg/ml
[6] = Cytotoxicity against human HepG2 cells assessed as inhibition of cell growth at 10 ug/ml measured after 48 hrs by CCK-8 method relative to control; assay type: toxicity, cell-based; settings: at 10 µg/mL
Pseudomonas aeruginosa [7] = assay: Anti-virulence activity in Pseudomonas aeruginosa PAO1 assessed as reduction in pyoverdine production at 160 ug/ml by absorbance based analysis; assay type: functional, organism-based; settings: dose 160.0 µg/ml
Pseudomonas aeruginosa [8] = assay: Downregulation of lasB mRNA expression in Pseudomonas aeruginosa PAO1 at 160 ug/ml incubated for 6 hrs by RT-qPCR analysis; assay type: functional; settings: dose 160.0 µg/ml
[9] = target: T1, Transcriptional regulator MvfR (Pseudomonas aeruginosa PA14, UniProt A0A072ZLE6); assay: Binding affinity to Pseudomonas aeruginosa PAO1 PqsR expressed in Escherichia coli BL21 assessed as dissociation constant by SPR analysis
T1 sequence (A0A072ZLE6 whole entry): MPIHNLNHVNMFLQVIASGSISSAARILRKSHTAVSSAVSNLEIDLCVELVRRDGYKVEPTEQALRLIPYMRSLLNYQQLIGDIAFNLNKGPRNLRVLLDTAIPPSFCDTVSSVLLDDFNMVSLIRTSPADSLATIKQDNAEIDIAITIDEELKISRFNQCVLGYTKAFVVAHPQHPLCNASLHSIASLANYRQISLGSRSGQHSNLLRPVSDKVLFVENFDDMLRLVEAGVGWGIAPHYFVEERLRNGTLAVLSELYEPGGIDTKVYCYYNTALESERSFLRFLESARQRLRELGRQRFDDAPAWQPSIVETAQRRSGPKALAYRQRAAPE

Pseudomonas aeruginosa [10] = assay: Downregulation of rhll-mRNA expression in Pseudomonas aeruginosa PAO1 at 160 ug/ml incubated for 6 hrs by RT-qPCR analysis; assay type: functional; settings: dose 160.0 µg/ml
Pseudomonas aeruginosa [11] = assay: Antibacterial activity against Pseudomonas aeruginosa infected in Galleria mellonella larvae infection model assessed as increase in survival rate at 160 ug/ml preincubated with measured after 72 hrs; assay type: functional, organism-based; settings: dose 160.0 µg/ml
Pseudomonas aeruginosa [12] = assay: Downregulation of lasl-mRNA expression in Pseudomonas aeruginosa PAO1 at 160 ug/ml incubated for 6 hrs by RT-qPCR analysis; assay type: functional; settings: dose 160.0 µg/ml
Pseudomonas aeruginosa [13] = assay: Anti-virulence activity in Pseudomonas aeruginosa PAO1 assessed as reduction in rhamnolipid production at 160 ug/ml incubated for 48 hrs by absorbance based analysis; assay type: functional, organism-based; settings: dose 160.0 µg/ml
Pseudomonas aeruginosa [14] = assay: Downregulation of rhlR mRNA expression in Pseudomonas aeruginosa PAO1 at 160 ug/ml incubated for 6 hrs by RT-qPCR analysis; assay type: functional; settings: dose 160.0 µg/ml
Pseudomonas aeruginosa [15] = assay: Anti-virulence activity in Pseudomonas aeruginosa PAO1 assessed as reduction in pyocyanin production at 160 ug/ml by absorbance based analysis; assay type: functional, organism-based; settings: dose 160.0 µg/ml
Pseudomonas aeruginosa [16] = assay: Downregulation of lasA mRNA expression in Pseudomonas aeruginosa PAO1 at 160 ug/ml incubated for 6 hrs by RT-qPCR analysis; assay type: functional; settings: dose 160.0 µg/ml
Pseudomonas aeruginosa [17] = assay: Anti-virulence activity in Pseudomonas aeruginosa PAO1 assessed as reduction in elastase production at 160 ug/ml by congo red dye based microplate reader analysis; assay type: functional, organism-based; settings: dose 160.0 µg/ml
Pseudomonas aeruginosa [18] = assay: Antibiofilm activity against Pseudomonas aeruginosa PAO1 assessed as reduction in biofilm production at 160 ug/ml incubated for 72 hrs by crystal violet staining based analysis; assay type: functional, organism-based; settings: dose 160.0 µg/ml
[19] = target: T2, Transcriptional activator protein LasR (Pseudomonas aeruginosa (strain ATCC 15692 / PAO1 / 1C / PRS 101 / LMG12228), UniProt P25084); assay: Binding affinity to Pseudomonas aeruginosa PAO1 LasR assessed as dissociation constant by SPR analysis
T2 sequence (P25084 whole entry): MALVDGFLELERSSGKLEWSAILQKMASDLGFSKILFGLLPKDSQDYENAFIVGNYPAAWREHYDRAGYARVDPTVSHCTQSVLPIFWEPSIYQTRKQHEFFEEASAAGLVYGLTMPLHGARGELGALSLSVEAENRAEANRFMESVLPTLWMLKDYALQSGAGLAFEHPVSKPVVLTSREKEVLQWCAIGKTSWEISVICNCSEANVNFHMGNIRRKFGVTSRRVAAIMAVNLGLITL

[20] = Cytotoxicity against human HepG2 cells assessed as inhibition of cell growth at 100 ug/ml measured after 48 hrs by CCK-8 method relative to control; assay type: toxicity, cell-based; settings: at 100 µg/mL
Pseudomonas aeruginosa [21] = assay: Anti-motility activity against Pseudomonas aeruginosa PAO1 assessed as reduction in swarming at 160 ug/ml incubated for 12 hrs; assay type: functional, organism-based; settings: dose 160.0 µg/ml
Pseudomonas aeruginosa [22] = assay: Downregulation of lasR mRNA expression in Pseudomonas aeruginosa PAO1 at 160 ug/ml incubated for 6 hrs by RT-qPCR analysis; assay type: functional; settings: dose 160.0 µg/ml
Pseudomonas aeruginosa [23] = assay: Downregulation of pqsA mRNA expression in Pseudomonas aeruginosa PAO1 at 160 ug/ml incubated for 6 hrs by RT-qPCR analysis; assay type: functional; settings: dose 160.0 µg/ml
Pseudomonas aeruginosa [24] = assay: Downregulation of phzM mRNA expression in Pseudomonas aeruginosa PAO1 at 160 ug/ml incubated for 6 hrs by RT-qPCR analysis; assay type: functional; settings: dose 160.0 µg/ml
Pseudomonas aeruginosa [25] = assay: Antibacterial activity against Pseudomonas aeruginosa PAO1 at 80 ug/ml incubated for 48 hrs by absorbance based analysis; assay type: functional, organism-based; settings: dose 80.0 µg/ml
Pseudomonas aeruginosa [26] = assay: Downregulation of chiC mRNA expression in Pseudomonas aeruginosa PAO1 at 160 ug/ml incubated for 6 hrs by RT-qPCR analysis; assay type: functional; settings: dose 160.0 µg/ml

Structure (SMILES): CC/C=C/C(=O)NCC(C)(C)O
inhibition [1]: 58.1% | inhibition [2]: -8.67% | inhibition [3]: 53.1%

Structure (SMILES): C=C(C)CNC(=O)/C=C/C
inhibition [1]: 80% | inhibition [2]: 38% | inhibition [3]: 67.5%

Structure (SMILES): C/C=C/C=C/C(=O)NCC(C)C
Activity (Pseudomonas aeruginosa [4]): inactive | inhibition [1]: 84.1% | Activity (Pseudomonas aeruginosa [5]): inactive | inhibition [2]: 65.5% | inhibition at 48 h, 10 ug/ml [6]: -2.16% | Activity (Pseudomonas aeruginosa [7]): Active | Activity (Pseudomonas aeruginosa [8]): Active | Kd [9]: 8.36 µM | Activity (Pseudomonas aeruginosa [10]): Active | Activity (Pseudomonas aeruginosa [11]): Active | Activity (Pseudomonas aeruginosa [12]): Active | Activity (Pseudomonas aeruginosa [13]): Active | Activity (Pseudomonas aeruginosa [14]): Active | Activity (Pseudomonas aeruginosa [15]): Active | inhibition [3]: 82.2% | Activity (Pseudomonas aeruginosa [16]): Active | Activity (Pseudomonas aeruginosa [17]): Active | Activity (Pseudomonas aeruginosa [18]): Active | Kd [19]: 1230 µM | inhibition at 48 h, 100 ug/ml [20]: 30.1% | Activity (Pseudomonas aeruginosa [21]): Active | Activity (Pseudomonas aeruginosa [22]): inactive | Activity (Pseudomonas aeruginosa [23]): Active | Activity (Pseudomonas aeruginosa [24]): Active

Structure (SMILES): C=CC(=O)NCC(C)(C)O
inhibition [1]: 29.7% | inhibition [2]: 0.28% | inhibition [3]: 6.82%

Structure (SMILES): CCC(=O)NCC(C)(C)O
inhibition [1]: 28.3% | inhibition [3]: 7.26%

Structure (SMILES): C=C(C)CNC(C)=O
inhibition [1]: 10.2% | inhibition [2]: 59.1% | inhibition [3]: 10.5%

Structure (SMILES): C/C=C/C(=O)NCC(C)(C)O
inhibition [1]: 41.9% | inhibition [3]: 29.9%

Structure (SMILES): C=C(C)CNC(=O)CCC
inhibition [1]: 64.5% | inhibition [2]: 38.1% | inhibition [3]: 61.5%

Structure (SMILES): C=CC(=O)NCC(=C)C
inhibition [1]: 63.9% | inhibition [2]: 2.45% | inhibition [3]: 54.7%

Structure (SMILES): C=C(C)CNC(=O)/C=C/C=C/C
inhibition [1]: 56.8% | inhibition [2]: 11.8% | inhibition [3]: 38.9%

Structure (SMILES): C/C=C/C=C/C(=O)NCC(C)(C)O
inhibition [1]: 32.4% | inhibition [3]: 26.3%

Structure (SMILES): CCC/C=C/C(=O)NCC(C)(C)O
inhibition [1]: 50.1% | inhibition [3]: 34.5%

Structure (SMILES): C=CCSSCC=C [DIALLYLDISULFIDE]
inhibition [1]: 38% | inhibition [2]: 34.6% | inhibition [3]: 36.1% | Activity (Pseudomonas aeruginosa [25]): inactive | inhibition at 48 h, 100 ug/ml [20]: 18.1%

Structure (SMILES): C=C(C)CNC(=O)/C=C/CCC
Activity (Pseudomonas aeruginosa [4]): inactive | inhibition [1]: 85% | Activity (Pseudomonas aeruginosa [5]): inactive | inhibition [2]: 40% | inhibition at 48 h, 10 ug/ml [6]: 9.91% | Activity (Pseudomonas aeruginosa [7]): Active | Activity (Pseudomonas aeruginosa [8]): Active | Activity (Pseudomonas aeruginosa [10]): Active | Activity (Pseudomonas aeruginosa [11]): Active | Activity (Pseudomonas aeruginosa [12]): Active | Activity (Pseudomonas aeruginosa [13]): Active | Activity (Pseudomonas aeruginosa [14]): Active | Activity (Pseudomonas aeruginosa [15]): Active | inhibition [3]: 77.1% | Activity (Pseudomonas aeruginosa [16]): Active | Activity (Pseudomonas aeruginosa [17]): Active | Activity (Pseudomonas aeruginosa [18]): Active | inhibition at 48 h, 100 ug/ml [20]: 18.9% | Activity (Pseudomonas aeruginosa [21]): Active | Activity (Pseudomonas aeruginosa [22]): inactive | Activity (Pseudomonas aeruginosa [23]): Active | Activity (Pseudomonas aeruginosa [26]): Active | Activity (Pseudomonas aeruginosa [24]): Active

Structure (SMILES): CC(=O)NCC(C)(C)O
inhibition [1]: 13.8% | inhibition [3]: 1.11%

Continued, in another order:

inhibition [1]: 68.4% | inhibition [2]: 42.5% | inhibition [3]: 61.6%
Structure (SMILES): C=C(C)CNC(=O)CCCCCC

inhibition [1]: 65.8% | inhibition [2]: 30.2% | inhibition [3]: 77.2%
Structure (SMILES): CCCCC(=O)NCC(C)C

inhibition [1]: 65.4% | inhibition [2]: 29.8% | inhibition [3]: 65.7%
Structure (SMILES): CCCC(=O)NCC(C)C

inhibition [1]: 43.1% | inhibition [2]: -6.15% | inhibition [3]: 37.4%
Structure (SMILES): CCCC(=O)NCC(C)(C)O

inhibition [1]: 72.3% | inhibition [2]: 27.8% | inhibition [3]: 63.7%
Structure (SMILES): C/C=C/C(=O)NCC(C)C

inhibition [1]: 72.7% | inhibition [2]: 26.2% | inhibition [3]: 71.5%
Structure (SMILES): CC/C=C/C(=O)NCC(C)C

inhibition [1]: 72.4% | inhibition [2]: 13.6% | inhibition [3]: 70%
Structure (SMILES): CCCCCC(=O)NCC(C)C

inhibition [1]: 8.21% | inhibition [2]: 5.99% | inhibition [3]: 2.28%
Structure (SMILES): CCCCCCC(=O)NCC(C)C

inhibition [1]: 18.1% | inhibition [3]: 13.1%
Structure (SMILES): CCCCCCC(=O)NCC(C)(C)O

inhibition [1]: 71% | inhibition [2]: 27.8% | inhibition [3]: 54.6%
Structure (SMILES): CCC(=O)NCC(C)C

inhibition [1]: 76.9% | inhibition [2]: 26% | inhibition [3]: 72.2%
Structure (SMILES): C=C(C)CNC(=O)CCCC

inhibition [1]: 54.9% | inhibition [3]: 32.4%
Structure (SMILES): CCCCCC(=O)NCC(C)(C)O

inhibition [1]: 55.8% | inhibition [2]: 1.47% | inhibition [3]: 40%
Structure (SMILES): CCCCC(=O)NCC(C)(C)O

inhibition [1]: 80.5% | inhibition [2]: 26.5% | inhibition [3]: 64.1%
Structure (SMILES): CCC/C=C/C(=O)NCC(C)C
Activity (Pseudomonas aeruginosa [26]): Active

inhibition [1]: 68.6% | inhibition [2]: 12.6% | inhibition [3]: 55.1%
Structure (SMILES): C=CC(=O)NCC(C)C

inhibition [1]: 79.7% | inhibition [2]: 36.1% | inhibition [3]: 72.7%
Structure (SMILES): C=C(C)CNC(=O)CCCCC

inhibition [1]: 18.9% | inhibition [2]: 11% | inhibition [3]: 13.8%
Structure (SMILES): CC(=O)NCC(C)C
